Measurements published in article PMC11212559 (Emerging Microbes & Infections, 2024).

Target: E1CTD-E12 complex (Monkeypox virus Zaire-96-I-16, UniProt Q8V4Y7)
Assay: biochemical

With C[S+](CC[C@H](N)C(=O)O)C[C@H]1O[C@@H](n2cnc3c(N)ncnc32)[C@H](O)[C@@H]1O (stereo partly shown) [SAM] the Kd was 3.87 µM.
